Each structure is given as a SMILES string.

The target of the first data set is T1, human CB2 receptor (Homo sapiens, UniProt P34972).
T1 construct: expressed in transfected cells
T1 sequence (P34972 whole entry): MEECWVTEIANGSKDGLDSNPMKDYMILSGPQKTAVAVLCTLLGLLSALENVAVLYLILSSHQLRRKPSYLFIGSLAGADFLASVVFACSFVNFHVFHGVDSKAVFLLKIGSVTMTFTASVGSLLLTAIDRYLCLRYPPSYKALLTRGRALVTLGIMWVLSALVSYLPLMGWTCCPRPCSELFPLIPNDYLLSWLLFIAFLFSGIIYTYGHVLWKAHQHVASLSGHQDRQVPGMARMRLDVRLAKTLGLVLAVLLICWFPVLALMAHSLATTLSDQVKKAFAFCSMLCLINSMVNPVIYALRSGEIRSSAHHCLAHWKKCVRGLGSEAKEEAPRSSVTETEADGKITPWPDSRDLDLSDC
Kind of data set: Human CB2 receptor binding inhibition test ([3H]CP-55,940, CHO membrane fractions). The note with it: [3H]CP-55,940, membrane fractions of CHO cells stably expressing human CB2 receptor, 25° C., 2 hours; read-out: CB2 IC50 (Inhibition of binding to human CB2 receptor). From the text:
Human CB2 Receptor Binding Inhibition Test
First, cDNA sequence (Munro et al., Nature, 1993, 365, 61-65) encoding a human CB2 receptor was inserted in the forward direction in an animal-cell expression vector, pTARGET Vector (manufactured by Promega) at a region downstream of a CMV promoter. Host cells CHO-DHFR(−) were transfected with the obtained expression vector with the aid of Lipofectamine (manufactured by Invitrogen) to obtain cells capable of stably expressing the CB2 receptor.
After the filtrate was washed with an assay buffer containing 0.1% bovine serum albumin, the radioactivity on the glass filter was measured by a liquid scintillation counter. Nonspecific binding was measured in the presence of 2.0 μM CP-55,940 (manufactured by Tocris). 50% inhibitory concentration (IC50 value) of the test compound for the specific binding was obtained.
Turning to `Cc1c(C(C)(C)C)s/c(=N\C(=O)C2C[C@H]2c2ccccc2)n1CC1CC1` (mixture of isomers) [compound 337], the IC50 – broadly, the concentration that inhibits the measured activity by half – is 2.8 nM.
For `Cc1s/c(=N\C(=O)CC(C)CC(C)(C)C)n(CC2CC2)c1C` (racemic) [compound 99], the IC50 is 6.5 nM.
For the compound `CCOCCn1c(C)c(C(C)(C)C)s/c1=N\C(=O)c1cccc(C(F)(F)F)c1` [Compound No. 352, 5-t-butyl-3-(2-ethoxyethyl)-4-methyl-2-(3-trifluoromethylbenzoyl)imino-2,3-dihydrothiazole], the IC50 came to 2.3 nM.
The same measure, in the same setting: the figure for `O=C(/N=c1\ccccn1CC1CCC1)c1cccc(C(F)(F)F)c1F` [compound 12] is 13.3 nM; for `COc1ccccc1C(=O)/N=c1\sc(C(C)(C)C)c(C)n1CC1CC1` [compound 195] it is 3.2 nM; for `Cc1c(C(C)(C)C)s/c(=N\C(=O)c2ccccc2OC(F)(F)F)n1CC1CC1` [compound 197] it is 2 nM.
Same read-out and setting: then `Cc1c(C(C)(C)C)s/c(=N\C(=O)c2cccc(C#N)c2)n1CC1CC1` [compound 211], with 12 nM.
Same read-out and setting: then `Cc1c(C(C)(C)C)s/c(=N\C(=O)c2cccc(F)c2F)n1CC1CC1` [compound 222], with 11.3 nM.
Take `Cc1c(C(C)(C)C)s/c(=N\C(=O)c2cccc(Cl)c2F)n1CC1CC1` [compound 225]: the IC50 was found to be 3.9 nM.
Same read-out and setting: then `Cc1c(C(C)(C)C)s/c(=N\C(=O)c2cccc(C(F)(F)F)c2F)n1CC1CC1` [compound 250], with 1.1 nM; and `Cc1c(C(C)(C)C)s/c(=N\C(=O)c2ccc(F)cc2C(F)(F)F)n1CC1CC1` [compound 255], with 0.6 nM; and `Cc1c(C(C)C)o/c(=N\C(=O)c2cccc(C(F)(F)F)c2F)n1CC1CC1` [compound 369], with 1.4 nM.
As for `CCCCn1c(C)c(C(C)(C)C)s/c1=N\S(=O)(=O)c1cccc2ccccc12` [compound 387], the IC50 was determined as 13.7 nM.
Consider `Cc1c(C(C)(C)C)s/c(=N\S(=O)(=O)c2cccc(Cl)c2Cl)n1CC1CC1` [compound 399], for which the IC50 worked out at 6.8 nM.
Turning to `Cc1c(C(C)(C)C)s/c(=N\S(=O)(=O)c2c(Cl)cccc2Cl)n1CC1CC1` [compound 402], the IC50 was found to be 15.4 nM.
On the same count and under the same terms, the figure for `Cc1cc(C)c(S(=O)(=O)/N=c2\sc(C(C)(C)C)c(C)n2CC2CC2)c(C)c1` [compound 410] is 7.1 nM; for `CC#CCn1c(C)c(C(C)(C)C)s/c1=N\S(=O)(=O)c1cccc2ccccc12` [compound 427] it is 5.9 nM; for `Cc1c(C(=O)/N=c2\cc(C(C)(C)C)n(C)n2CC2CC2)cccc1C(F)(F)F` [compound 470] it is 10.6 nM.
The same measure, in the same setting: the figure for `Cn1c(C(C)(C)C)c/c(=N\C(=O)c2cccc(C(F)(F)F)c2F)n1CC1CCC1` [compound 482, N-(5-t-butyl-2-cyclobutylmethyl-1,2-dihydro-1-methylpyrazol-3-ylidene)-2-fluoro-3-(trifluoromethyl)benzamide] is 1.2 nM; for `Cn1c(C(C)(C)C)c/c(=N\C(=O)c2cccc(C(F)(F)F)c2F)n1CC1CCCC1` [compound 485] it is 1.1 nM; for `CCOCCn1/c(=N/C(=O)c2cccc(C(F)(F)F)c2F)cc(C(C)(C)C)n1C` [compound 488] it is 4 nM.
On the same count and under the same terms, the figure for `CC(C)OCCn1/c(=N/C(=O)c2cccc(C(F)(F)F)c2F)cc(C(C)(C)C)n1C` [compound 493] is 1.9 nM.
For `CCn1c(C(C)(C)C)c/c(=N\C(=O)c2cccc(C(F)(F)F)c2F)n1CC1CC1` [compound 495], the IC50 amounted to 6.3 nM.
Consider `CC(C)(C)c1nn(CC2CC2)/c(=N/C(=O)c2cccc(C(F)(F)F)c2F)s1` [compound 504], for which the IC50 was 15.4 nM.
Take `CCOc1ccncc1C(=O)/N=c1\sc(C(C)(C)C)nn1CC1CC1` [compound 513]: the IC50 was determined as 16.9 nM.

Test system in a further data set: not given
Assay: not given
Conditions: not given
On to `Cc1c(C(C)(C)C)s/c(=N\C(=O)C2C[C@H]2c2ccccc2)n1CC1CC1` (mixture of isomers) [compound 337], for which the melting point – broadly, the temperature, or range, at which the solid turns liquid – was in the range of 110 to 112 °C.
Still for that read-out and setting: then `Cc1s/c(=N\C(=O)CC(C)CC(C)(C)C)n(CC2CC2)c1C` (racemic) [compound 99], with 42 to 43 °C; and `CCOCCn1c(C)c(C(C)(C)C)s/c1=N\C(=O)c1cccc(C(F)(F)F)c1` [Compound No. 352, 5-t-butyl-3-(2-ethoxyethyl)-4-methyl-2-(3-trifluoromethylbenzoyl)imino-2,3-dihydrothiazole], with 91 to 92 °C; and `O=C(/N=c1\ccccn1CC1CCC1)c1cccc(C(F)(F)F)c1F` [compound 12], with 93 to 94 °C.

Values taken from patent US20080312435A1, “Imine Compound” (TAISHO PHARMACEUTICAL CO., LTD., priority 2004, published 2008).
